Data as given in patent publication US6583132B1, “Oxidant scavengers” (Duke University, priority 1993, dated 2003).

Assays:
Assay type in all cases: cell-based
rat cortical cells = assay: Neurotoxicity (LDH release) in cortical cell culture
Procedure: Tissue culture: Mixed neuronal and glial cultures were prepared from embryonic day-18 rat cerebral cortices (Sprague-Dawley, Zivic Miller). Briefly, the cerebral cortices were dissected and enzymatically dissociated by incubation in Ca^++-, Mg^++-free Hank's balanced salt solution (HBSS) supplemented with 10 mM HEPES and 0.25% trypsin for 20 min. at 37° C. The tissue was rinsed and dispersed into single cell suspension by gentle passage through a fire polished Pasteur pipette. The cell suspension was centrifuged and resuspended in Minimum Essential Media (MEM), containing Earle's salts supplemented with 3 g/L glucose, 5% horse serum and 5% fetal bovine serum (growth media). The cells were plated in poly-D-lysine-coated multi-well plates: 12-well plates for aconitase measurement, and 24 well plates for toxicity experiments. Cells were maintained at 37° C. in a humidified incubator with 5% CO2/95% air in growth media. Media was not replaced so as to reduce glial overgrowth and neuronal loss. Mature cells (14-17 days in vitro) were used for all experiments.
Cell treatment: The growth media was replaced with MEM supplemented with 25 mM glucose (MEM-g). For both neurotoxicity studies and aconitase measurement, cells were incubated in the designated treatment for the indicated length of time at 37° C. Unless otherwise specified, antagonists or SOD-mimetics were added 15 min. prior to agonists. For measurement of neurotoxicity, cells were incubated with treatments for 18 hr at 37° C. in MEM-g. To access the ability of antagonists to inhibit acute NMDA toxicity or rescue cells from an ongoing NMDA insult, an alternate paradigm of NMDA treatment was used in addition to the one describe above. In this paradigm, growth media was replaced with HBSS^+ (Ca^++-, Mg^++-free Hank's Balanced Salt Solution supplemented with 2 mM CaCl2, 1 mM NaHCO3, 10 mM HEPES and 5 μM glycine), cells were treated with vehicle or 100 μM NMDA for 15 min. after which HBSS^+ was replaced with MEM-g and cells were returned to the incubator for 18 additional hrs. Antagonsists or SOD-mimetics were added to the cells 15 min. before NMDA exposure or 15, 30 or 60 min. following final media replacement. For determination of Ca^++-dependence, cells were incubated in HBSS^+ with no added Ca^++. When kainate (KA) was used as an agonist, 100 μM D-APV was routinely included to block secondary NMDA receptor activation. Catalase (100 U/ml) was always included when xanthine plus xanthine oxidase (X+XO) was used as a treatment to rule out the contribution of hydrogen peroxide.
Neurotoxicity studies: Neurotoxicity was determined by the measurement of LDH released in the supernatant media as previously described (Patel et al, Toxicol. Appl. Pharmacol. 115:124 (1991) and Neurotoxicology 14:35 (1992)). LDH was measured by the method of Vassault, Lactate dehydrogenase. In: Methods of Enzymatic Analysis, Bergmeyer HU (ed), Verlag Chemie, Weinheim, pp. 118-126 (1983). Additionally, cell death was confirmed with ethidium-1 homodimer (EthD-1). Briefly, the cells were washed with HBSS, loaded with 20 μM EthD-1 for 30 min,. rinsed and viewed through fluorescence optics. The number of dead cells labeled with EthD-1 were counted in 4-6 randomly selected fields, the numbers averaged to give an estimate of cell death and the experiment was repeated 3 times.

[1] = test system: calf pulmonary artery endothelial cell cultures (CPA-47); assay: Xanthine oxidase/xanthine-induced injury, LDH release; conditions: 50 μM, 1 hour pre-incubation; XO plus 200 μM xanthine, 24 hours
Procedure: (§1) In a second study, calf pulmonary artery endothelial cell cultures (CPA-47 (Tissue and Cell 10:535 (1978)) were grown to confluence in Ham's F-12K medium with 10% fetal bovine serum at pH 7.4 and 37° C. Cells were then trypsinized and seeded at equal densities in 24 well plates and grown to 90% confluence. Cells were washed and pre-incubated for 1 hour with 50 μM of MnTBAO in minimum essential medium (MEM) or MEM only. Various amounts of xanthine oxidase (XO) plus 200 μM xanthine (X) were added and allowed to incubate for 24 hours. Cell injury was quantitated by measuring the release of cellular lactate dehydrogenase (LDH) into the medium.

[2] = test system: calf pulmonary artery endothelial cell cultures (CPA-47); assay: Paraquat-induced injury of CPA-47 cells, LDH release; conditions: varying concentrations; Paraquat 2 mM, 24 hours
Procedure: as §1, with “Calf” for “In a second study, calf”, “(CPA-47)” for “(CPA-47 (Tissue and Cell 10:535 (1978))”, “varying concentrations” for “50 μM”, “ZnTBAP” for “MnTBAO”, “MEM” for “minimum essential medium (MEM)”, “Paraquat (2 mM) was” for “Various amounts of xanthine oxidase (XO) plus 200 μM xanthine (X) were”

[3] = test system: Calf pulmonary endothelial cell (CPA-47) line; assay: Glucose oxidase hydrogen peroxide injury of CPA-47, Cr^51 release; conditions: glucose oxidase 100 Mu/ml, 4 hours; 1 hour pretreatment
Procedure: (§2) Calf pulmonary endothelial cell (CPA-47) line was grown to near confluence in 12-well plates with F-12K medium containing 10% fetal calf serum. CPA-47 cells were loaded with Cr^51 as previously described by Simon et al J. Clin. Invest. 78:1375 (1986) in high glucose minimum essential medium (DMEM). Cells were pretreated with MnTBAP (100 μM) for 1 hour and then exposed to various concentrations of hydrogen peroxide generator, glucose oxidase, for 4 hours. Cell injury was then quantitated as the specific Cr^51 release from CPA-47 cells which has been adjusted for spontaneous Cr51 release.
as §2, with “(J.” for “J.”, “(1986))” for “(1986)”, “various concentrations of either: (A) MnTBAP; (B) MnTMPyP; (C) ZnTBAP; or (D) CuZnSOD” for “MnTBAP (100 μM)”, “the” for “various concentrations of”, “oxidase (100 Mu/ml),” for “oxidase,”, “Cr^51” for “Cr51”

“Mn(III) tetrakis (4-benzoic acid)porphyrin [MnTBAP]” was tested, and the “PQ^++-, NMDA- and KA-mediated cell death (LDH release)” value (rat cortical cells; 200 μM MnTBAP, 18 hr) was “markedly inhibited”, the “shift of concentration-response curve for NMDA (LDH)” value (rat cortical cells; 200 μM MnTBAP, 18 hr) was “complete protection at low concentrations of NMDA” and the “reduction of LDH release” value (rat cortical cells; 200 μM added 30 min. after 15 min. 100 μM NMDA) was 30%. The “reduction of LDH release” value (rat cortical cells; 200 μM added 60 min. after 15 min. 100 μM NMDA) was 25%, the “reduction of LDH release / protective effect” value (rat cortical cells; added 15 min. after 15 min. 100 μM NMDA, 200 μM MnTBAP, 10 μM MK801) was 38% and the “reduction of LDH release” value (rat cortical cells; condition "pre": 15 min. prior to and during 15 min. 100 μM NMDA, measured 18 hr. later) was 25%. The “reduction of LDH release” value (rat cortical cells; condition "pre+post", 100 μM NMDA 15 min.) was 51%, the “XO/X-induced LDH release” value [1] was “decrease in XO/X-induced LDH release” and the “paraquat-induced LDH release / injury” value [2] was “decreases paraquat-induced LDH release in a dose-dependent manner”. For the same substance, the “hydrogen peroxide-induced endothelial cell injury” value [3] was “reduction”.
